Measured values published in patent publication US6610689B2, “HIV protease inhibitors based on amino acid derivatives” (priority 2001, dated 2003).
Where two headings read alike, the source gives them in different places.

Target: T1, HIV protease (Human immunodeficiency virus type 1 group M subtype B, UniProt P04585)
T1 construct: A third viral enzyme known as protease then cleaves the polyproteins
Experiment: Enzymatic Assay for Determining the Inhibition Constant (Ki) of Synthetic Compounds Targeting the HIV Protease (fluorometric FRET assay)
Assay type: biochemical
How it was run: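 Ki obtained via the Henderson equation from enzyme velocities with and without compound, accounting for substrate concentration and Km. Activity followed by FRET fluorescence from cleavage of a substrate flanked by EDANS donor and DABCYL acceptor.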

[1] = Table 1, compounds of formula I, read-out: Ki (anti-protease activity)
[2] = Anti-protease activity of Ne-amino acid substituted L-lysine derivatives and analogs of formula I, read-out: Ki

Row | Molecule | Ki [nM] | other results
1 | Cc1ccc(S(=O)(=O)N(CC(C)C)[C@@H](CCCCNC(=O)[C@H](Cc2ccccc2)NC(=O)c2ccccc2)C(=O)O)cc1 [Example 50, Nα-Isobutyl-Nα-(4-methylbenzenesulfonyl)-Nε-(N′α-benzoyl-L-phenylalanyl)-L-lysine] | 2 | 
2 | Cc1ccc(S(=O)(=O)N[C@@H](Cc2c[nH]c3ccccc23)C(=O)NCCCC[C@@H](C=O)N(CC(C)C)S(=O)(=O)c2ccc(C)cc2)cc1 [Example 116, (2S,2′S) 2-N-Isobutyl-2-N-(4-methylbenzenesulfonyl)-6-N-[N′α-(4-methylbenzenesulfonyl)-S-tryptophanyl]-2,6-diaminohexanal] |  | Ki [1]: > 300 nM
3 | Nα-Isobutyl-Nα-(4-methylbenzenesulfonyl)-Nε-[N′α-(4-bromobenzenesulfonyl)-L-phenylalanyl]-L-lysine [Example 20] |  | Ki [2]: 19 nM
4 | Cc1ccc(S(=O)(=O)N[C@H](Cc2ccccc2)C(=O)NCCCC[C@@H](C(=O)O)N(CC(C)C)S(=O)(=O)c2ccc(C)cc2)cc1 [Example 7, Nα-Isobutyl-Nα-(4-methylbenzenesulfonyl)-Nε-[N′α-(4-methylbenzenesulfonyl)-D-phenylalanyl]-L-lysine] | 120 | 
5 | Cc1ccc(S(=O)(=O)N(CC(C)C)[C@@H](CCCCNC(=O)[C@H](Cc2ccccc2)NC(=O)C(F)(F)F)C(=O)O)cc1 [Example 101, Nα-Isobutyl-Nα-(4-methylbenzenesulfonyl)-Nε-(N′α-trifluoroacetyl-L-phenylalanyl)-L-lysine] | 2.9 | 
6 | Cc1ccc(S(=O)(=O)N[C@@H](Cc2ccccc2)C(=O)NCCCC[C@@H](C(=O)O)N(CC(C)C)S(=O)(=O)c2ccccc2)cc1 [Example 200, Nα-Benzenesulfonyl-Nα-isobutyl-Nε-[N′α-(4-methylbenzenesulfonyl)-L-phenylalanyl]-L-lysine] | 31 | 
7 | Cc1ccc(S(=O)(=O)N(CC(C)C)[C@@H](CCCCNC(=O)CN(Cc2ccccc2)c2ccccc2)C(=O)O)cc1 [Example 114, Nα-Isobutyl-Nα-(4-methylbenzenesulfonyl)-Nε-(N′α-benzyl-N′α-phenylglycyl)-L-lysine] |  | Ki [1]: 0.937 nM
8 | COc1ccc(NC(=O)N[C@@H](Cc2ccccc2)C(=O)NCCCC[C@@H](C(=O)O)N(CC(C)C)S(=O)(=O)c2ccc(C)cc2)cc1 [Example 196, Nα-Isobutyl-Nα-(4-methylbenzenesulfonyl)-Nε-[N′α-(4-methoxyanilinecarbonyl)-L-phenylalanyl]-L-lysine] | 0.5 | 
9 | CC(C)CN([C@H](CO)CCCCNC(=O)[C@H](Cc1c[nH]c2ccccc12)NS(=O)(=O)c1cccs1)S(=O)(=O)c1ccc(N)cc1 [Example 166, (2S,2′S) 2-N-(4-Aminobenzenesulfonyl)-2-N-isobutyl-6-N-[N′α-(2-thiophenesulfonyl)-S-tryptophanyl]-2,6-diaminohexanol] | 1 | 
10 | CC(C)CN([C@H](CO)CCCCNC(=O)[C@H](Cc1ccccc1)NS(=O)(=O)c1ccc([N+](=O)[O-])cc1)S(=O)(=O)c1ccc(N)cc1 [Example 194, (2S,2′S) 2-N-(4-Aminobenzenesulfonyl)-2-N-isobutyl-6-N-[N′α-(4-nitrobenzenesulfonyl)-S-phenylalanyl]-2,6-diaminohexanol] | 85 | 
11 | Cc1ccc(S(=O)(=O)N(CC(C)C)[C@@H](CCCCNC(=O)CN(C)c2ccccc2)C(=O)O)cc1 [Example 115, Nα-Isobutyl-Nα-(4-methylbenzenesulfonyl)-Nε-(N′α-methyl-N′α-phenylglycyl)-L-lysine] |  | Ki [1]: 12 nM
12 | Cc1ccc(S(=O)(=O)N(CC(C)C)[C@H](CO)CCCCNC(=O)[C@H](Cc2ccccc2F)NC(=O)OC(C)(C)C)cc1 [Example 138, (2S,2′S) 2-N-Isobutyl-2-N-(4-methylbenzenesulfonyl)-6-N-(N′α-tert-butoxycarbonyl-S-2-fluorophenylalanyl)-2,6-diaminohexanol] | 10 | 
13 | COC(=O)[C@H](CCCCNC(=O)[C@H](Cc1c[nH]c2ccccc12)NC(=O)OC(C)(C)C)N(CC1CCCC1)S(=O)(=O)c1ccc(OC)cc1 [Example 150, Nα-Cyclopentylmethyl-Nα-(4-methoxybenzenesulfonyl)-Nε-(N′α-tert-butoxycarbonyl-L-tryptophanyl)-L-lysine Methyl Ester] | > 300 | 
14 | Cc1ccc(S(=O)(=O)N[C@@H](CCC(=O)O)C(=O)NCCCC[C@@H](C(=O)O)N(CC(C)C)S(=O)(=O)c2ccc(C)cc2)cc1 [Example 38, Nα-Isobutyl-Nα-(4-methylbenzenesulfonyl)-Nε-[N′α-(4-methylbenzenesulfonyl)-L-glutamyl]-L-lysine] | 220 | 
15 | Cc1ccc(S(=O)(=O)N(CC(C)C)[C@@H](CCCCNC(=O)[C@@H](N)Cc2c[nH]c3ccccc23)C(=O)O)cc1 [Example 93, Nα-Isobutyl-Nα-(4-methylbenzenesulfonyl)-Nε-(L-tryptophanyl)-L-lysine] | 2.1 | 
16 | Cc1ccc(S(=O)(=O)N(CC(C)C)[C@@H](CCCCNC(=O)CNc2ccncc2)C(=O)O)cc1 [Example 112, Nα-Isobutyl-Nα-(4-methylbenzenesulfonyl)-Nε-[N′α-(4-pyridyl)glycyl]-L-lysine] |  | Ki [1]: > 300 nM

Row | Molecule | Ki [nM] | other results
17 | Cc1ccc(S(=O)(=O)N(CC(C)C)[C@H](CO)CCCCNC(=O)[C@H](Cc2ccccc2)NC(=O)c2ccccc2)cc1 [Example 95, (2S,2′S) 2-N-Isobutyl-2-N-(4-methylbenzenesulfonyl)-6-N-(N′α-benzoyl-S-phenylalanyl)-2,6-diaminohexanol] | 54 | 
18 | CC(C)CN([C@H](CO)CCCCNC(=O)[C@H](Cc1ccccc1)NS(=O)(=O)c1ccc(N)cc1)S(=O)(=O)c1ccc(N)cc1 [Example 195, (2S,2′S) 2-N-(4-Aminobenzenesulfonyl)-2-N-isobutyl-6-N-[N′α-(4-aminobenzenesulfonyl)-S-phenylalanyl]-2,6-diaminohexanol] | 20 | 
19 | COc1ccc(S(=O)(=O)N(CC(C)C)[C@H](CO)CCCCNC(=O)[C@H](Cc2c[nH]c3ccccc23)NS(=O)(=O)c2ccc(C)cc2)cc1 [Example 149, (2S,2′S) 2-N-Isobutyl-2-N-(4-methoxybenzenesulfonyl)-6-N-[N′α-(4-methylbenzenesulfonyl)-S-tryptophanyl]-2,6-diaminohexanol] | 7.5 | 
20 | COc1ccc(CC(=O)N[C@@H](Cc2c[nH]c3ccccc23)C(=O)NCCCC[C@@H](C(=O)O)N(CC(C)C)S(=O)(=O)c2ccc(C)cc2)cc1 [Example 164, Nα-Isobutyl-Nα-(4-methylbenzenesulfonyl)-Nε-[N′α-(4-methoxyphenylacetyl)-L-tryptophanyl]-L-lysine] | 0.32 | 
21 | Cc1ccc(S(=O)(=O)N(CC(C)C)[C@@H](CCCCNC(=O)CNCCN2CCOCC2)C(=O)O)cc1 [Example 111, Nα-Isobutyl-Nα-(4-methylbenzenesulfonyl)-Nε-[N′α-(4-niorpholinyl-N-ethyl)glycyl]-L-lysine] | > 300 | 
22 | Cc1ccc(S(=O)(=O)N(CC(C)C)[C@@H](CCCCNC(=O)[C@H](CC(C)C)NS(=O)(=O)c2ccc([N+](=O)[O-])cc2)C(=O)O)cc1 [Example 16, Nα-Isobutyl-Nα-(4-methylbenzenesulfonyl)-Nε-[N′α-(4-nitrobenzenesulfonyl)-L-leucyl]-L-lysine] | 34 | 
23 | Cc1ccc(S(=O)(=O)N(CC(C)C)[C@@H](CCCCNC(=O)[C@H](Cc2ccccc2)NC(=O)OC(C)(C)C)C(=O)O)cc1 [Example 78, Nα-Isobutyl-Nα-(4-methylbenzenesulfonyl)-Nε-(N′α-tert-butoxycarbonyl-L-phenylalanyl)-L-lysine] | 2.5 | 
24 | CC(C)CN([C@H](CO)CCCCNC(=O)[C@H](Cc1c[nH]c2ccccc12)NC(=O)N1CCOCC1)S(=O)(=O)c1ccc(N)cc1 [Example 170, (2S,2′S) 2-N-(4-Aminobenzenesulfonyl)-2-N-isobutyl-6-N-[N′α-(4-morpholinecarbonyl)-S-tryptophanyl]-2,6-diaminohexanol] |  | Ki [1]: 1.1 nM
25 | Cc1ccc(S(=O)(=O)N(CC(C)C)[C@@H](CCCCNC(=O)[C@H](Cc2c[nH]c3ccccc23)NS(=O)(=O)c2cccs2)C(=O)O)cc1 [Example 53, Nα-Isobutyl-Nα-(4-methylbenzenesulfonyl)-Nε-[N′α-(2-thiophenesulfonyl)-L-tryptophanyl]-L-lysine] | 13 | 
26 | Cc1ccc(S(=O)(=O)N(CC(C)C)[C@@H](CCCCNC(=O)CNc2ccccc2)C(=O)O)cc1 [Example 105, Nα-Isobutyl-Nα-(4-methylbenzenesulfonyl)-Nε-(N′α-phenylglycyl)-L-lysine] |  | Ki [1]: 7.7 nM
27 | (2S,2′S) 2-N-Isobutyl-2-N-(4-methylbenzenesulfonyl)-6-N-(N′α-tert-butoxycarbonyl-S-4-thiazolylalanyl)-2,6-diaminohexanol [Example 137] |  | Ki [1]: 96 nM
28 | CC(=O)N[C@@H](Cc1ccccc1)C(=O)NCCCC[C@@H](CO)N(CC(C)C)S(=O)(=O)c1ccc(C)cc1 [Example 118, (2S,2′S) 2-N-Isobutyl-2-N-(4-methylbenzenesulfonyl)-6-N-(N′α-acetyl-S-phenylalanyl)-2,6-diaminohexanol] | 13 | 
29 | Cc1ccc(S(=O)(=O)N(CC(C)C)[C@H](CO)CCCCNC(=O)[C@H](Cc2ccccc2)NC(=O)N2CCOCC2)cc1 [Example 120, (2S,2′S) 2-N-Isobutyl-2-N-(4-methylbenzenesulfonyl)-6-N-[N′α-(4-morpholinecarbonyl)-S-phenylalanyl]-2,6-diaminohexanol] | 2.4 | 
30 | Cc1ccc(S(=O)(=O)N(CC(C)C)[C@@H](CCCCNC(=O)[C@H](Cc2ccccc2)NS(=O)(=O)c2cccs2)C(=O)NN)cc1 [Example 64, Nα-Isobutyl-Nα-(4-methylbenzenesulfonyl)-Nε-[N′α-(2-thiophenesulfonyl)-L-phenylalanyl]-L-lysine Hydrazide] |  | Ki [2]: > 300 nM
31 | Cc1ccc(S(=O)(=O)N[C@@H](Cc2ccc([N+](=O)[O-])cc2)C(=O)NCCCC[C@@H](CO)N(CC(C)C)S(=O)(=O)c2ccc(C)cc2)cc1 [Example 124, (2S,2′S) 2-N-Isobutyl-2-N-(4-methylbenzenesulfonyl)-6-N-[N′α-(4-methylbenzenesulfonyl)-S-4-nitrophenylalanyl]-2,6-diaminohexanol] | 12 | 
